BindingDB's records for doi:10.1016/s0014-2999(99)00610-x (Hungarian Academy of Sciences, 1999)
“And” between values parts separate entries of the source, which are not always exact repeats. Equal entries are not always repeated. Where a SMILES comes first, the peptide text is derived from it. [ ]: non-standard residue; d: D form. Tic = O=C(O)[C@@H]1Cc2ccccc2CN1

Columns and labels:
[1] = target: Kappa-type opioid receptor (Cavia porcellus, UniProt P41144)
[2] = target: Kappa-type opioid receptor (Rattus norvegicus, UniProt P34975)
[3] = target: Mu-type opioid receptor (Rattus norvegicus, UniProt P33535)
[4] = target: Mu-type opioid receptor (Cavia porcellus, UniProt P97266)
[5] = target: Delta-type opioid receptor (Rattus norvegicus, UniProt P33533)
[6] = target: Delta-type opioid receptor (Sus scrofa, UniProt P79291)
Sequence of Delta-type opioid receptor (Sus scrofa, UniProt P79291) (P79291 whole entry): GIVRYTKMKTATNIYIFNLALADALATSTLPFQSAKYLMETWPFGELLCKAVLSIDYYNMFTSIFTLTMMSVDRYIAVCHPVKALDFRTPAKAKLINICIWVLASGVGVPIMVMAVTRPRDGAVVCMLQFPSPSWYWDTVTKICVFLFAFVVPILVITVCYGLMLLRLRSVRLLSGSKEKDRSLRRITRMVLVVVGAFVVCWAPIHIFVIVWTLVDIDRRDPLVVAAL

Sequence of Delta-type opioid receptor (Rattus norvegicus, UniProt P33533) (P33533 whole entry): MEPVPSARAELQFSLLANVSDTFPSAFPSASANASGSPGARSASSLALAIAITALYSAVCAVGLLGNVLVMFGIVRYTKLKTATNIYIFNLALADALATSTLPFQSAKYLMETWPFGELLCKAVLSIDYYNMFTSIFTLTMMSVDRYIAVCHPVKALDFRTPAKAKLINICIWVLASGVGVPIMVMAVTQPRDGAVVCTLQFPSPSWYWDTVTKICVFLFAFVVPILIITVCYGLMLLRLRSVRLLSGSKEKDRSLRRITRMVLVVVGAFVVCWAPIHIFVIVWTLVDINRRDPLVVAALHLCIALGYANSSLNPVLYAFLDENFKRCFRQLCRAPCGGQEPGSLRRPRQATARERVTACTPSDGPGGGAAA
Sequence of Mu-type opioid receptor (Rattus norvegicus, UniProt P33535) (P33535 whole entry): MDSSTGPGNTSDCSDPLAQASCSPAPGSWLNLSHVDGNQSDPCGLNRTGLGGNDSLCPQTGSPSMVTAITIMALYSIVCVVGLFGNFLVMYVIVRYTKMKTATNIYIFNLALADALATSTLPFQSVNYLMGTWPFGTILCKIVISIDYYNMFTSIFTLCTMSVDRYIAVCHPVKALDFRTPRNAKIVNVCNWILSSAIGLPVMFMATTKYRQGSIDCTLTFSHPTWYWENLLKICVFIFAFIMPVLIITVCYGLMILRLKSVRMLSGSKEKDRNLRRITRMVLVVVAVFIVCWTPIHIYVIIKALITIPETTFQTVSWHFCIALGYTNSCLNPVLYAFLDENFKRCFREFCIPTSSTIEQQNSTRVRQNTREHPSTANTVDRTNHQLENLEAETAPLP
Sequence of Mu-type opioid receptor (Cavia porcellus, UniProt P97266) (P97266 whole entry): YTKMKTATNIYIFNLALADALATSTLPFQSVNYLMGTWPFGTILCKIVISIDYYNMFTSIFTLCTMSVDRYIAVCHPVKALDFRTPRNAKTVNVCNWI
Sequence of Kappa-type opioid receptor (Rattus norvegicus, UniProt P34975) (P34975 whole entry): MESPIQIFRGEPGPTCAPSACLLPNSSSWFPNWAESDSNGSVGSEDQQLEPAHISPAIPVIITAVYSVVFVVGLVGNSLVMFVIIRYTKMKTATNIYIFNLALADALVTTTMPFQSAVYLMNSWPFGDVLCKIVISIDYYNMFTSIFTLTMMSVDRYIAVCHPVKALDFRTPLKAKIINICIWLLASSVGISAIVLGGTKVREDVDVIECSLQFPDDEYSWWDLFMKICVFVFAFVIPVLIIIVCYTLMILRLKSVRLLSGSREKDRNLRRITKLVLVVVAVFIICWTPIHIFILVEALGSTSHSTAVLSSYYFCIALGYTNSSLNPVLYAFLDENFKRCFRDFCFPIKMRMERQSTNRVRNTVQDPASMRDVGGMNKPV
Sequence of Kappa-type opioid receptor (Cavia porcellus, UniProt P41144) (P41144 whole entry): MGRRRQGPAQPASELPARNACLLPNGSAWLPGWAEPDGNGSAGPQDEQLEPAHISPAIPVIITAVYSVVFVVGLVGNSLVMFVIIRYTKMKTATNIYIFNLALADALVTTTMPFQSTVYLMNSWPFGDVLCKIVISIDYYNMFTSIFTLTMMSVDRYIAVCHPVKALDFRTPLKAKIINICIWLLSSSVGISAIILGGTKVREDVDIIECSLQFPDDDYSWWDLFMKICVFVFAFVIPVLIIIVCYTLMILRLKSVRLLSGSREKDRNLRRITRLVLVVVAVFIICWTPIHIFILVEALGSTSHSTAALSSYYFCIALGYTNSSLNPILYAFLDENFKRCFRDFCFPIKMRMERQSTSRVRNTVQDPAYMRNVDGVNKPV

| SMILES | Ki [4] | Ki [5] | Ki [6] | further results |
| --- | --- | --- | --- | --- |
| Oc1ccc2c3c1OC1c4[nH]c5c(c4CC4(O)CN(CCC314)C(C1CC1)C2)CC1(O)CN2CCC13c1c(ccc(O)c1OC53)CC2C1CC1 (stereo not given) [CAS_105618-26-6] |  |  |  | Ki [1]: 770 nM; Ki [2]: 172 nM |
| COc1cccc2c1[C@]13CCN(CC4CC4)C(C2)[C@]1(OC)CCC(=O)C3 | 26.6 nM |  |  | Ki [3]: 8.1 nM and 5.4 nM; Ki [2]: 2190 nM |
| C[C@@H](NC(=O)[C@@H](N)Cc1ccc(O)cc1)C(=O)NCC(=O)N(C)[C@@H](Cc1ccccc1)C(=O)NCCO [[tyrosyl-3,5-3H(N)]-D-Ala2-Mephe4-glyol5-enkephalin] | 2.6 nM |  |  |  |
| CN1CC[C@]23c4c5ccc(O)c4O[C@H]2[C@@H](O)CCC3[C@H]1C5 (stereo not given in full) [DIHYDROMORPHINE] | 6 nM |  |  |  |
| CC(C)C[C@H](NC(=O)[C@H](Cc1ccccc1)NC(=O)CNC(=O)[C@@H](CO)NC(=O)[C@@H](N)Cc1ccc(O)cc1)C(=O)N[C@H](C(=O)O)[C@@H](C)O [DSLET-OH] |  | 9.8 nM | 6.3 nM |  |
| N[C@@H](Cc1ccc(O)cc1)C(=O)N1Cc2ccccc2C[C@H]1C(=O)N[C@@H](Cc1ccccc1)C(=O)N[C@@H](Cc1ccccc1)C(=O)O [TIPP] (H-Y[Tic]FF-OH) |  | 2830 nM | 7060 nM |  |
| CC(C)[C@H](NC(=O)[C@H](CCC(=O)O)NC(=O)[C@H](Cc1ccccc1)NC(=O)[C@@H](C)NC(=O)[C@@H](N)Cc1ccc(O)cc1)C(=O)N[C@H](C(=O)NCC(N)=O)C(C)C [Tyr-D-Ala-Phe-Glu-Val-Val-GlyNH2] |  | 1190 nM | 2880 nM |  |
| C[C@@H](O)[C@H](NC(=O)[C@H]1NC(=O)[C@H]([C@@H](C)O)NC(=O)[C@H](CCCN=C(N)N)NC(=O)[C@@H](Cc2c[nH]c3ccccc23)NC(=O)[C@H](Cc2ccc(O)cc2)NC(=O)[C@@H](NC(=O)[C@H](N)Cc2ccccc2)CSSC1(C)C)C(N)=O | 48.1 nM |  |  | Ki [3]: 43.8 nM |
